Measured values as given in ChEMBL document CHEMBL5126582, “Discovery of (2-(pyrrolidin-1-yl)thieno[3,2-d]pyrimidin-4-yl)(3,4,5-trimethoxyphenyl)methanone as a novel potent tubulin depolymerizing and vascular disrupting agent” (Eur J Med Chem, 2022).
Active and inactive are the calls of the source. The calls are words filed in the database; no cut-off is given here.

What was measured:
[1] = Metabolic stability in rat liver microsomes assessed as intrinsic clearance incubated for 5 mins in presence of NADPH by HPLC analysis; type: ADME, Microsome; conditions: read-out: CLH
[2] = tested on: HeLa; assay: Induction of apoptosis in human HeLa cells assessed as viable cells at 100 nM incubated for 72 hrs by annexin V FITC and propidium iodide staining based flow cytometry analysis (reference value: 90.1%); type: functional; conditions: read-out: Activity
[3] = tested on: HeLa; assay: Induction of apoptosis in human HeLa cells assessed as necrotic cells at 1 uM incubated for 48 hrs by annexin V FITC and propidium iodide staining based flow cytometry analysis (reference value: 1.85 %); type: functional
[4] = tested on: HeLa; assay: Induction of apoptosis in human HeLa cells assessed as late apoptotic cells at 100 nM incubated for 72 hrs by annexin V FITC and propidium iodide staining based flow cytometry analysis (reference value: 4.70%); type: functional
[5] = tested on: HeLa; assay: Induction of apoptosis in human HeLa cells assessed as viable cells at 100 nM incubated for 48 hrs by annexin V FITC and propidium iodide staining based flow cytometry analysis (reference value: 85.5%); type: functional; conditions: read-out: Activity
[6] = tested on: HeLa; assay: Induction of mitochondrial membrane potential alteration in human HeLa cells assessed as late apoptotic cells at 750 nM measured after 48 hrs by JC1 staining-based flow cytometry analysis (reference value: 0.009%); type: functional
[7] = tested on: HeLa; assay: Induction of apoptosis in human HeLa cells assessed as early apoptotic cells at 500 nM incubated for 72 hrs by annexin V FITC and propidium iodide staining based flow cytometry analysis (reference value: 2.36%); type: functional
[8] = tested on: HeLa; assay: Induction of apoptosis in human HeLa cells assessed as necrotic cells at 750 nM incubated for 72 hrs by annexin V FITC and propidium iodide staining based flow cytometry analysis (reference value: 2.88 %); type: functional
[9] = biological target: Tubulin (Homo sapiens) (UniProt P68371+Q9H4B7+P0DPH7+P68366+Q13509+Q71U36+P04350+Q3ZCM7+P07437+P68363+Q9BQE3+Q6PEY2+Q13885+Q9BVA1+Q9BUF5); assay: Disruption of microtubule network in human HeLa cells at 100 to 500 nM incubated for 3 hrs by laser confocal microscopy analysis; type: cell-based; conditions: dose 100-500 nM, DDE = dose-dependent effect
[10] = tested on: HeLa; assay: Induction of cell cycle arrest in human HeLa cells assessed as reduction of cells at G1 phase at 100 to 2000 nM incubated for 24 to 48 hrs by […] flow cytometry; type: functional; conditions: dose 100-2000 nM, time 24-48 hrs
[11] = tested on: HeLa; assay: Induction of apoptosis in human HeLa cells assessed as viable cells at 1 uM incubated for 72 hrs by annexin V FITC and propidium iodide staining based flow cytometry analysis (reference value: 90.1%); type: functional; conditions: read-out: Activity
[12] = tested on: HeLa; assay: Induction of mitochondrial membrane potential alteration in human HeLa cells assessed as late apoptotic cells at 250 nM measured after 48 hrs by JC1 staining-based flow cytometry analysis (reference value: 0.009%); type: functional
[13] = tested on: HeLa; assay: Induction of apoptosis in human HeLa cells assessed as early apoptotic cells at 100 nM incubated for 48 hrs by annexin V FITC and propidium iodide staining based flow cytometry analysis (reference value: 6.01%); type: functional
[14] = tested on: HeLa; assay: Induction of apoptosis in human HeLa cells assessed as late apoptotic cells at 500 nM incubated for 72 hrs by annexin V FITC and propidium iodide staining based flow cytometry analysis (reference value: 4.70%); type: functional
[15] = tested on: HeLa; assay: Induction of apoptosis in human HeLa cells assessed as viable cells at 100 nM incubated for 24 hrs by annexin V FITC and propidium iodide staining based flow cytometry analysis (reference value: 85.7%); type: functional; conditions: read-out: Activity
[16] = tested on: HeLa; assay: Induction of apoptosis in human HeLa cells assessed as necrotic cells at 750 nM incubated for 48 hrs by annexin V FITC and propidium iodide staining based flow cytometry analysis (reference value: 1.85 %); type: functional
[17] = tested on: HeLa; assay: Induction of apoptosis in human HeLa cells assessed as necrotic cells at 1 uM incubated for 24 hrs by annexin V FITC and propidium iodide staining based flow cytometry analysis (reference value: 1.14 %); type: functional
[18] = tested on: HeLa; assay: Induction of mitochondrial membrane potential alteration in human HeLa cells assessed as necrotic cells at 1 uM measured after 48 hrs by JC1 staining-based flow cytometry analysis (reference value: 0%); type: functional
[19] = tested on: HeLa; assay: Induction of apoptosis in human HeLa cells assessed as late apoptotic cells at 100 nM incubated for 48 hrs by annexin V FITC and propidium iodide staining based flow cytometry analysis (reference value: 8.87%); type: functional

- microsomal CLint [1]: 40.8 µL/min/mg
- Activity [9]: Dde
SMILES: COc1cc(C(=O)c2nc(N3CCCC3)nc3ccsc23)cc(OC)c1OC
- viability at 0.1 µM [2]: 85.1%
- Activity [3]: 46.3%
- Activity [4]: 8.57%
- viability at 0.1 µM [5]: 60.7%
- Activity [6]: 0.077%
- Activity [7]: 0.734%
- Activity [8]: 40.8%
- Activity [10]: Active
- viability at 1 µM [11]: 27.9%
- Activity [12]: 0.01%
- Activity [13]: 2.8%
- Activity [14]: 14.5%
- viability at 0.1 µM [15]: 80.5%
- Activity [16]: 22.5%
- Activity [17]: 4.52%
- Activity [18]: 0.053%
- Activity [19]: 5.18%
